According to patent publication US20060198904A1, “Methods for inhibiting allergic inflammation and other responses initiated by pollens, molds, and other non-animal derived allergens” (priority 2002, published 2006):
Where two headings read alike, the source gives them in different places.

Tests used:
NADPH oxidase = assay: NBT assay (reduction of NBT to formazan); type: biochemical, ragweed (Ambrosia artemisiifolia)
Experimental: NBT Assay. […]. Mixtures were then incubated for 15 min at 37° C., and the sedimented formazan was dissolved in methanol. The absorbance was determined at 530 nm in a spectrophotometer (DU 530, Beckman Instruments, Fullerton, Calif.).

[1] = system: normal human bronchial epithelial (NHBE) cells; assay: Intracellular ROS (H2DCF-DA) in cultured NHBE cells; type: cell-based; conditions: quinacrine 500 μM, diphenylene iodonium 100 μM, FIG. 2A
Experimental: Cell Lines. Cells were obtained from the ATCC (A549, NCI-H292 and MDCK), or Cambrex Bio Science (Walkersville, Md.) (NHBE). Cells were maintained in humidified CO2 (5%) incubator and medium as recommended by the suppliers.
Measurements of Reactive Oxygen Species. Epithelial cells (A549, NCI-H292, NHBE, and MDCK) were “loaded” with 50 μM H2DCF-DA (Molecular Probes, Eugene, Oreg.) at 37° C. for 15 minutes. After washing out excess probe, cells were treated with various allergenic extracts with or without NADPH (100 μM), NAC (1 mM), or NADPH oxidase inhibitors: quinacrine (500 μM) and diphenylene iodonium (100 μM). The change in fluorescence intensity was assessed in a FLx800 micro plate reader (Bio-Tek Instruments, Winooski, Vt.), or by flow cytometry (FACScan, Becton Dickinson, Franklin Lakes, N.J.) at 488 nm excitation and 530 nm emission. Each data point represents the mean fluorescence from three or more independent experiments, and is expressed ±s.e.m.

[2] = system: lung-(NCI-H292) and kidney-(MDCK) derived epithelial cells; assay: Intracellular ROS (H2DCF-DA) in other epithelial cells; type: cell-based; conditions: pre-treatment of epithelial cells, NAC 1 mM, FIG. 2B
Experimental: Cell Lines. Cells were obtained from the ATCC (A549, NCI-H292 and MDCK), or Cambrex Bio Science (Walkersville, Md.) (NHBE). Cells were maintained in humidified CO2 (5%) incubator and medium as recommended by the suppliers. Measurements of Reactive Oxygen Species. Epithelial cells (A549, NCI-H292, NHBE, and MDCK) were “loaded” with 50 μM H2DCF-DA (Molecular Probes, Eugene, Oreg.) at 37° C. for 15 minutes. After washing out excess probe, cells were treated with various allergenic extracts with or without NADPH (100 μM), NAC (1 mM), or NADPH oxidase inhibitors: quinacrine (500 μM) and diphenylene iodonium (100 μM). The change in fluorescence intensity was assessed in a FLx800 micro plate reader (Bio-Tek Instruments, Winooski, Vt.), or by flow cytometry (FACScan, Becton Dickinson, Franklin Lakes, N.J.) at 488 nm excitation and 530 nm emission. Each data point represents the mean fluorescence from three or more independent experiments, and is expressed ±s.e.m.

[3] = system: superoxide anions (O2.^−); assay: Cytochrome c assay for detecting O2.− generation; type: biochemical, ragweed (Ambrosia artemisiifolia); conditions: SOD 50 U/ml added to pRWE^NOX+NADPH+Cyt c
Experimental: Cytochrome c Assay for Detecting O2.^− Generation. The method described by Messner and Imaly was used. The assay was carried out in PBS with 10 μg pRWE and 10 μM oxidized cytochrome c (Sigma-Aldrich) in the reaction mixture. The reactions were started by adding 100 μM NADPH, and the increase in A550 nm was recorded for 5 min. Saturating amounts of SOD 9(50 U/ml, Sigma-Aldrich) were used in a reference reaction to determine any such O2.^− independent reduction of cytochrome c by the sample.

Molecule | NBT reducing activity of pRWE^NOX in presence of the agent (NADPH oxidase; pRWE^NOX, FIG. 1A) | effect on extract-induced elevation in ROS levels [1] | also measured
CCN(CC)CCCC(C)Nc1c2ccc(Cl)cc2nc2ccc(OC)cc12 (centres unmarked) [quinacrine] | inhibited | inhibited | –
CC(=O)N[C@@H](CS)C(=O)O [N-acetyl-L-cysteine] | – | – | effect on RWE-induced increase in intracellular ROS levels [2]: inhibited; effect on RWE-induced increase in intracellular ROS levels ([2]; listed as NAC): inhibits
c1ccc2c(c1)[I+]c1ccccc1-2 [diphenyleneiodonium] | inhibited | inhibited | –
[N-]=[N+]=[N-].[Na+] [azide, sodium azide] | – | – | NBT reducing activity of pRWE^NOX in presence of the agent (NADPH oxidase): resistant
superoxide dismutase | – | – | effect on the pRWE^NOX-induced increase in absorbance at 550 nm [3]: abrogated
